Experimental data as given in ChEMBL document CHEMBL5620380, “Identification of 5-[5-cyano-1-(pyridin-2-ylmethyl)-1H-indole-3-carboxamido] thiazole-4-carboxylic acid as a promising dual inhibitor of urate transporter 1 and xanthine oxidase” (Eur J Med Chem, 2023).
Activity calls are given as the source filed them. No cut-off for these calls is given here.

Columns and labels:
[1] = biological target: T1, Solute carrier family 22 member 12 (Homo sapiens, UniProt Q96S37); assay: Inhibition of URAT1 (unknown origin)-mediated 14C uric acid uptake expressed in HEK293 cells using 14C uric acid as substrate at 10 uM by liquid scintillation counting analysis; format: cell-based
T1 sequence (Q96S37 whole entry): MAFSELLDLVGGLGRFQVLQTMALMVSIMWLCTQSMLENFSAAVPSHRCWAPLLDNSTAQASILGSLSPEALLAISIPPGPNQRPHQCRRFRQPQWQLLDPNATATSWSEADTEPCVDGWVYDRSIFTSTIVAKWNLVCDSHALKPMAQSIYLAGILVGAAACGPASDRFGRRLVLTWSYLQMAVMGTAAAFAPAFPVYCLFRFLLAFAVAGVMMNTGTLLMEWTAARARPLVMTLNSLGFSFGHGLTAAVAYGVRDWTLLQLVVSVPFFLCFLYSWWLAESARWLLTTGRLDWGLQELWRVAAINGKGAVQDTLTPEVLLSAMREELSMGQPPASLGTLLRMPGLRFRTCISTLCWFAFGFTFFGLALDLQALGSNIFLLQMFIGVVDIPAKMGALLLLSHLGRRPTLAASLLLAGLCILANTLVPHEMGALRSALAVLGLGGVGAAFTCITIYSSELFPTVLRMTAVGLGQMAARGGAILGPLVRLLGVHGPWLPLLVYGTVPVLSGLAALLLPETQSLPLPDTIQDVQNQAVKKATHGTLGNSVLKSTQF

[2] = biological target: T2, Xanthine dehydrogenase/oxidase (Bos taurus, UniProt P80457); assay: Inhibition of bovine XO assessed as inhibition of uric acid production using xanthine as substrate preincubated for 25 mins followed by substrate addition and measured for first 2 mins by spectrophotometric analysis
T2 sequence (P80457 whole entry): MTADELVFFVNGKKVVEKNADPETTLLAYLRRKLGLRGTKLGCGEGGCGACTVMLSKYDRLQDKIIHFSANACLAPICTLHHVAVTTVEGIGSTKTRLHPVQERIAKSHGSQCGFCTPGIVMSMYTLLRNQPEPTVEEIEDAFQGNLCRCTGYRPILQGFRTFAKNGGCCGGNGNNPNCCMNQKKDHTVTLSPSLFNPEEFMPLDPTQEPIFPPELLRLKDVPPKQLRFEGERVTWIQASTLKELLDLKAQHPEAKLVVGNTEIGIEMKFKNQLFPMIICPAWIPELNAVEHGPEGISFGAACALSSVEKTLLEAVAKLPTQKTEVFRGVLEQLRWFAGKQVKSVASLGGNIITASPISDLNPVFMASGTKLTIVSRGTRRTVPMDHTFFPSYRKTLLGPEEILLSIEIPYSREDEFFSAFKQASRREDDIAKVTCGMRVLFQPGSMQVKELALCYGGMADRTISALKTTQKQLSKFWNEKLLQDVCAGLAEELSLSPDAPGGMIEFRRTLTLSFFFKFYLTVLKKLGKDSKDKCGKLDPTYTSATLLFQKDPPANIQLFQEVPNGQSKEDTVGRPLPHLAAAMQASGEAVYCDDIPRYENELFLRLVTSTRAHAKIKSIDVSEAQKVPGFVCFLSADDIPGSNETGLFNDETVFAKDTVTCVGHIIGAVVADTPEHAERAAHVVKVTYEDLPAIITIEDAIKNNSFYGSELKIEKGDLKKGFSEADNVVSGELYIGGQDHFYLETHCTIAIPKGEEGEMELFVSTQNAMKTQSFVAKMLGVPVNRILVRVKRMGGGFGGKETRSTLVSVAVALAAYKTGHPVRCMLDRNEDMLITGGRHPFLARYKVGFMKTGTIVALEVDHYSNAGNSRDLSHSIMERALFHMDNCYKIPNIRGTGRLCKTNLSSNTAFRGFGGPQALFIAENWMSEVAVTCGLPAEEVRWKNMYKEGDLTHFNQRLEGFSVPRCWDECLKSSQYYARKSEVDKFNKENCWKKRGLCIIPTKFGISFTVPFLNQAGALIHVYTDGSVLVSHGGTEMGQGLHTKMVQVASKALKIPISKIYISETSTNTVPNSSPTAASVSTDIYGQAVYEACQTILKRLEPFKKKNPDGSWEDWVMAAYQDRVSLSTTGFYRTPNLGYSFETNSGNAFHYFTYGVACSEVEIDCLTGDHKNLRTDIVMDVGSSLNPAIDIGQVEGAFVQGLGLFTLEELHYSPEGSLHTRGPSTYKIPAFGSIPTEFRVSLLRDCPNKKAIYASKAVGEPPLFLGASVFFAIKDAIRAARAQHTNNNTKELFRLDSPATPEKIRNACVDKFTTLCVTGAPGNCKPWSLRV

[3] = biological target: T2, Xanthine dehydrogenase/oxidase; assay: Inhibition of bovine XO assessed as inhibition of uric acid production using xanthine as substrate at 10 uM preincubated for 25 mins followed by substrate addition and measured for first 2 mins by spectrophotometric analysis; settings: cattle, time 27 min
[4] = system: Rattus norvegicus; assay: Hypouricemic activity against potassium oxonate-induced hyperuricemia Sprague-Dawley rat model assessed as decrease in serum uric acid level at 10 mg/kg, ig administered 1 hr post-potassium oxonate challenge and measured after 1 to 5 hrs; format: functional, organism-based; settings: time 1-5 hrs
[5] = system: Rattus norvegicus; assay: Hypouricemic activity against potassium oxonate-induced hyperuricemia Sprague-Dawley rat model assessed as decrease in AUC of serum uric acid level at 10 mg/kg, ig administered 1 hr post-potassium oxonate challenge and measured after 1 to 5 hrs; format: functional; settings: po, time 1-5 hrs
[6] = biological target: T2, Xanthine dehydrogenase/oxidase; assay: Mixed inhibition of bovine XO assessed as increase in Km with decrease in Vmax using xanthine as substrate by Lineweaver-Burk plot analysis; settings: cattle
[7] = biological target: T2, Xanthine dehydrogenase/oxidase; assay: Potency index, ratio of allopurinol IC50 to test compound IC50 for inhibition of bovine XO; settings: cattle
[8] = system: Rattus norvegicus; assay: Hypouricemic activity against potassium oxonate-induced hyperuricemia Sprague-Dawley rat model assessed as decrease in serum uric acid level at 10 mg/kg, ig administered 1 hr post-potassium oxonate challenge and measured after 3 hrs; format: functional; settings: po

In the case of `O=C(O)c1ccccc1NC(=O)c1cn(Cc2cccnn2)c2ccccc12`, the inhibition at 10 µM [1] is reported as 10.4%.

`O=C(O)c1cccc(NC(=O)c2c[nH]c3ccccc23)c1` gave an inhibition at 10 µM [1] of 25.8%.

With `N#Cc1ccc2c(c1)c(C(=O)Nc1cc[nH]c1C(=O)O)cn2Cc1ccccn1` the IC50 [2] was 2.67 µM and the inhibition at 10 µM [1] was 51%.

For `CC(C)(C)c1ccc(Cn2cc(C(=O)Nc3ccccc3C(=O)O)c3ccccc32)cc1`, the inhibition at 10 µM [1] was -4.8%.

With `O=C(O)c1ccccc1NC(=O)c1cn(Cc2ccccc2)c2ccccc12` the inhibition at 10 µM [1] was 41.3%.

For `COc1ccc(Cn2cc(C(=O)Nc3ccccc3C(=O)O)c3ccccc32)cc1`, the inhibition at 10 µM [1] was 53.9%.

Work on `O=C(O)c1ccccc1NC(=O)c1cn(Cc2cnccn2)c2ccccc12` yielded an inhibition at 10 µM [1] of 52.7%.

`N#Cc1ccc2c(c1)c(C(=O)Nc1ccccc1C(=O)O)cn2Cc1ccccn1` gave an inhibition at 10 µM [3] of 33.5% and an inhibition at 10 µM [1] of 60.7%.

With `O=C(O)c1ccccc1NC(=O)c1cn(Cc2ccc(Cl)cc2)c2ccccc12` the inhibition at 10 µM [1] was 69.4%.

For `O=C(O)c1ccccc1NC(=O)c1cn(Cc2ccccn2)c2ccccc12`, the inhibition at 10 µM [1] was 81.4%.

In the case of `O=C(O)c1ccccc1NC(=O)c1cn(Cc2cccnc2)c2ccccc12`, the inhibition at 10 µM [1] is reported as 43.1%.

In the case of `N#Cc1ccc2c(C(=O)Nc3ccccc3C(=O)O)cn(Cc3ccccn3)c2c1`, the inhibition at 10 µM [1] is reported as 65.7%.

In the case of `Cc1ccc(Cn2cc(C(=O)Nc3ccccc3C(=O)O)c3ccccc32)cc1`, the inhibition at 10 µM [1] is reported as 61%.

In the case of `N#Cc1ccc2c(c1)c(C(=O)Nc1ncc(C(=O)O)s1)cn2Cc1ccccn1`, the IC50 [2] is reported as 2.12 µM and the inhibition at 10 µM [1] is reported as 15.9%.

`O=C(O)c1ccccc1NC(=O)c1cn(Cc2cscn2)c2ccccc12` was tested, and the inhibition at 10 µM [1] was 64.4%.

Work on `O=C(O)c1ccccc1NC(=O)c1cn(Cc2cccs2)c2ccccc12` yielded an inhibition at 10 µM [1] of 56.7%.

`O=C(O)c1ccc(NC(=O)c2c[nH]c3ccccc23)cc1` showed an inhibition at 10 µM [1] of 0.1%.

`Cc1ccc2c(C(=O)Nc3ccccc3C(=O)O)cn(Cc3ccccn3)c2c1` gave an inhibition at 10 µM [1] of 49.1%.

`O=C(O)c1ccccc1NC(=O)c1cn(Cc2ccc(Br)cc2)c2ccccc12` gave an inhibition at 10 µM [1] of 73.6%.

With `O=C(O)c1ccccc1NC(=O)c1cn(Cc2ccccc2F)c2ccccc12` the inhibition at 10 µM [1] was 40.7%.

For `Oc1ncnc2[nH]ncc12`, the Activity [4] was “Active”.

`Cc1ccc2c(c1)c(C(=O)Nc1ccccc1C(=O)O)cn2Cc1ccccn1` gave an inhibition at 10 µM [1] of 46.8%.

With `O=C(O)c1ccccc1NC(=O)c1cn(Cc2ccccn2)c2cc(F)ccc12` the inhibition at 10 µM [1] was 51.6%.

In the case of `O=C(O)c1ccccc1NC(=O)c1cn(Cc2cccc(F)c2)c2ccccc12`, the inhibition at 10 µM [1] is reported as 48%.

`O=C(O)CSc1nnc(Br)n1-c1ccc(C2CC2)c2ccccc12` gave an inhibition at 10 µM [1] of 47%.

`O=C(O)c1ccccc1NC(=O)c1cn(Cc2ccncc2)c2ccccc12` gave an inhibition at 10 µM [1] of 68.4%.

Compound `O=C(O)c1ccccc1NC(=O)c1cn(Cc2ccccn2)c2ccc(F)cc12` has an inhibition at 10 µM [1] of 51.1%.

`O=C(O)c1ccccc1NC(=O)c1cn(Cc2ncccn2)c2ccccc12` gave an inhibition at 10 µM [1] of 49.9%.

`O=C(O)c1ccccc1NC(=O)c1cn(C(=O)c2ccccc2)c2ccccc12` was tested, and the inhibition at 10 µM [1] was 10.9%.

With `COc1ccc(/C=C/C(=O)Nc2ccccc2C(=O)O)cc1OC` the Activity [4] was “Active” and the inhibition at 10 µM [1] was 44.9%.

`O=C(O)c1ccccc1NC(=O)c1c[nH]c2ccccc12` gave an inhibition at 10 µM [1] of 33.2%.

`O=C(O)c1ccccc1NC(=O)c1cn(Cc2ccc(F)cc2)c2ccccc12` showed an inhibition at 10 µM [1] of 73.4%.

`N#Cc1ccc2c(c1)c(C(=O)Nc1scnc1C(=O)O)cn2Cc1ccccn1` showed an IC50 [2] of 1.01 µM, an inhibition at 10 µM [1] of 48% and an inhibition in vivo at 10 mg/kg [5] of 25.8%. The “inhibition (INH)” value [6] was “Active”, the “Ratio IC50” value [7] was 9.1 and the inhibition in vivo at 10 mg/kg [8] was 22.3%.
